Assay results: ChEMBL document CHEMBL3853354, “Structure-activity relationships of proline modifications around the tetracyclic-indole class of NS5A inhibitors” (Bioorg Med Chem Lett, 2016)

Assays:
[1] = system: Hepatitis C virus subtype 1a; test: Inhibition of NS5A in HCV genotype 1a assessed as reduction in replicon RNA level after 3 days by cell based RT-PCR method
[2] = system: Hepatitis C virus subtype 2b; test: Inhibition of NS5A in HCV genotype 2b assessed as reduction in replicon RNA level after 3 days by cell based RT-PCR method
[3] = system: Nonstructural protein 5A (Hepatitis C virus), Q5L478 [UNDEFINED MUTATION]; test: Inhibition of NS5A L31V mutant in HCV genotype 1a assessed as reduction in replicon RNA level after 3 days by cell based RT-PCR method; settings: Hepatitis C virus subtype 1a
[4] = system: T1, Nonstructural protein 5A (Hepatitis C virus), Q5L478 [Y93H]; test: Inhibition of NS5A Y93H mutant in HCV genotype 1a assessed as reduction in replicon RNA level after 3 days by cell based RT-PCR method; settings: Hepatitis C virus subtype 1a
T1 sequence (whole entry): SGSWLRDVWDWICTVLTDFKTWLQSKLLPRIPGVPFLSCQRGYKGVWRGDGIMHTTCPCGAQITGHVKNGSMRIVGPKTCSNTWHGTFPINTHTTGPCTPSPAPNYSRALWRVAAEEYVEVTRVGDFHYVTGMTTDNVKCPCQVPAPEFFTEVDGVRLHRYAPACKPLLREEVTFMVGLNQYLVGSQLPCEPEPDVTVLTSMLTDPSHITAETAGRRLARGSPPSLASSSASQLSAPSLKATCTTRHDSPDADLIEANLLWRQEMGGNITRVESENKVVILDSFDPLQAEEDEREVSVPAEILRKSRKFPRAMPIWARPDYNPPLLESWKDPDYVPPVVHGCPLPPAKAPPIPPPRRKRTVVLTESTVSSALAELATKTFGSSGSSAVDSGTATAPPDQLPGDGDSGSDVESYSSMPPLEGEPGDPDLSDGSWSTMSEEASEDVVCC

[5] = system: Hepatitis C virus subtype 3a; test: Inhibition of NS5A in HCV genotype 3a assessed as reduction in replicon RNA level after 3 days by cell based RT-PCR method

Row | SMILES | EC90 [1] | EC90 [2] | EC90 [3] | EC90 [4] | EC90 [5]
1 | COC(=O)N[C@H](C(=O)N1C[C@H](F)C[C@H]1c1ncc(-c2cc(F)c3c(c2)OC(c2cccc(OC)c2)n2c-3cc3cc(-c4cnc([C@@H]5C[C@@H](F)CN5C(=O)[C@@H](NC(=O)OC)C(C)C)[nH]4)ccc32)[nH]1)C(C)C (stereo partly specified) | 0.006 nM | 39 nM | 1.59 nM | 0.065 nM | –
2 | COC(=O)N[C@H](C(=O)N1CCC[C@H]1c1ncc(-c2cc(F)c3c(c2)OC(c2cccc(OC)c2)n2c-3cc3cc(-c4cnc([C@@H]5C[C@@H](F)CN5C(=O)[C@@H](NC(=O)OC)C(C)C)[nH]4)ccc32)[nH]1)C(C)C (stereo partly specified) | 0.01 nM | 33.6 nM | 0.29 nM | 1.81 nM | –
3 | COC(=O)N[C@H](C(=O)N1CC2(CC2)C[C@H]1c1ncc(-c2cc(F)c3c(c2)OC(c2cccc(OC)c2)n2c-3cc3cc(-c4cnc([C@@H]5CC6(CC6)CN5C(=O)[C@@H](NC(=O)OC)C(C)C)[nH]4)ccc32)[nH]1)C(C)C (stereo partly specified) | 0.011 nM | 38.8 nM | 0.05 nM | 23.7 nM | 0.16 nM
4 | COC(=O)N[C@H](C(=O)N1[C@@H]2C[C@@H]2C[C@H]1c1ncc(-c2cc(F)c3c(c2)OC(c2cccc(OC)c2)n2c-3cc3cc(-c4cnc([C@@H]5C[C@H]6C[C@H]6N5C(=O)[C@@H](NC(=O)OC)C(C)C)[nH]4)ccc32)[nH]1)C(C)C (stereo partly specified) | 0.005 nM | 22.5 nM | 1.72 nM | 0.51 nM | 0.17 nM
5 | COC(=O)N[C@H](C(=O)N1CCC[C@H]1c1ncc(-c2ccc3c(c2)cc2n3C(c3cccc(OC)c3)Oc3cc(-c4cnc([C@@H]5C[C@H]6C[C@H]6N5C(=O)[C@@H](NC(=O)OC)C(C)C)[nH]4)cc(F)c3-2)[nH]1)C(C)C (stereo partly specified) | 0.026 nM | 49.3 nM | 0.36 nM | 10.9 nM | –
6 | COC(=O)N[C@H](C(=O)N1[C@@H]2CCCC[C@@H]2C[C@H]1c1ncc(-c2cc(F)c3c(c2)OC(c2cccc(OC)c2)n2c-3cc3cc(-c4cnc([C@@H]5C[C@H]6CCCC[C@H]6N5C(=O)[C@@H](NC(=O)OC)C(C)C)[nH]4)ccc32)[nH]1)C(C)C (stereo partly specified) | 0.18 nM | 21 nM | 0.51 nM | 37.6 nM | –
7 | COC(=O)N[C@H](C(=O)N1C(C)CC[C@H]1c1ncc(-c2ccc3c(c2)OC(c2ccccc2)n2c-3cc3cc(-c4cnc([C@@H]5CCC(C)N5C(=O)[C@@H](NC(=O)OC)C(C)C)[nH]4)ccc32)[nH]1)C(C)C (single isomer, unassigned; diastereomer B) | – | 129 nM | 5.74 nM | 158 nM | 51.5 nM
8 | COC(=O)N[C@H](C(=O)N1C[C@H](F)C[C@H]1c1ncc(-c2cc(F)c3c(c2)OC(c2cccc(OC)c2)n2c-3cc3cc(-c4cnc([C@@H]5C[C@H]6C[C@H]6N5C(=O)[C@@H](NC(=O)OC)C(C)C)[nH]4)ccc32)[nH]1)C(C)C (stereo partly specified) | 0.032 nM | 52.2 nM | 0.92 nM | 5.15 nM | –
9 | COC(=O)N[C@H](C(=O)N1C[C@H](OC(F)F)C[C@H]1c1ncc(-c2cc(F)c3c(c2)OC(c2cccc(OC)c2)n2c-3cc3cc(-c4cnc([C@@H]5C[C@@H](OC(F)F)CN5C(=O)[C@@H](NC(=O)OC)C(C)C)[nH]4)ccc32)[nH]1)C(C)C (stereo partly specified) | 0.021 nM | 55.6 nM | – | 5.27 nM | 12.9 nM
10 | COC(=O)N[C@H](C(=O)N1C(C)CC[C@H]1c1ncc(-c2ccc3c(c2)OC(c2ccccc2)n2c-3cc3cc(-c4cnc([C@@H]5CCC(C)N5C(=O)[C@@H](NC(=O)OC)C(C)C)[nH]4)ccc32)[nH]1)C(C)C (single isomer, unassigned; diastereomer A) | – | 75 nM | 1.72 nM | 64 nM | 6.14 nM
11 | COC(=O)N[C@H](C(=O)N1C[C@H](F)C[C@H]1c1ncc(-c2cc(F)c3c(c2)OC(c2cccc(OC)c2)n2c-3cc3cc(-c4cnc([C@@H]5C[Si](C)(C)CN5C(=O)[C@@H](NC(=O)OC)C(C)C)[nH]4)ccc32)[nH]1)C(C)C (stereo partly specified) | 0.3 nM | 391 nM | 13.6 nM | 91.4 nM | –
